Like-named read-outs stand apart in the source and are kept apart here. Positions of bridges follow the written chain, without caps; N, C: chain ends. Residues, ends and D or L forms follow the SMILES beside them.
How the values were obtained:
[1] = target: human Kv1.3 potassium channel (human) (UniProt P22001)
hKv1.1 channel (human) = hKv1.1 channel (human) (UniProt Q09470)
hKv1.2 channel (human) = hKv1.2 channel (human) (UniProt P16389)
hKv1.6 channel (human) = hKv1.6 channel (human) (UniProt P17658)
hKv1.1 channel = test: Whole-cell patch clamp, hKv1.1 channel currents; format: cell-based, human; conditions: 1 μM peptide, mean ± SE, n ≥ 3, SEM
Excerpt: (§1) The pRc/CMV-hKv1.3 was kindly provided by Professor Stephan Grissmer (University of Ulm, Ulm, Germany) and Professor Olaf Pongs (Zentrum für Molekulare Neurobiologie der Universität Hamburg, Hamburg, Germany). The cDNAs encoding hKv1.1 and hKv1.2 (from Professor Stephan Grissmer, University of Ulm, Ulm, Germany) were subcloned into the vector pIRES2-EGFP (TaKaRa Clontech, Mountain View, CA, USA). The cDNAs encoding hKv1.6 were subcloned into the vector pcDNA 3.1(+) (TaKaRa Clontech, Mountain View, CA, USA). A QuikChange Site-Directed Mutagenesis Kit (Stratagene, La Jolla, CA, USA) was used to produce the mutants based on the wild-type hKv1.3 channel plasmids. All plasmids and their mutants were verified by DNA sequencing before the expression. The three channel chimeras were, respectively, named by hKv1.3-M1 (425DPTSGFS432 → 425ERESQFP432), hKv1.3-M2 (452HPV456 → 452VPT456) and hKv1.3-M3 (425DPTSGFS432 → 425ERESQFP432, 452HPV456 → 452VPT456).
(§2) In a 5% CO2 incubator at 37 °C, HEK293T cells were cultured in DMEM medium (Gibco, Grand Island, NY, USA) supplemented with 10% fetal bovine serum and 1% penicillin/streptomycin. Potassium channel plasmids and pEGFP-N1 were co-transfected into the HEK293 cells using the ExFect Transfection Reagent (Vazyme, Nanjin, China). After one day of transfection, the potassium currents were recorded, and the positive cells were selected based on the presence of GFP fluorescence.
(§3) Whole-cell current measurement and data acquisition were performed using an EPC-10 patch-clamp amplifier controlled by Pulse (HEKA Elektronik, Lambrecht, Germany). The potassium currents were recorded according to the recording protocol for the Kv1 channel, as described in previously published references. Peptides were dissolved in an external solution containing 0.01% BSA for electrophysiological experiments. […]

hKv1.2 channel = test: Whole-cell patch clamp, hKv1.2 channel currents; format: cell-based, human; conditions: 1 μM peptide, mean ± SE, n ≥ 3, SEM
Excerpt: as §1, §2, §3

hKv1.6 channel = test: Whole-cell patch clamp, hKv1.6 channel currents; format: cell-based, human; conditions: 1 μM peptide, mean ± SE, n ≥ 3, SEM
Excerpt: as §1, §2, §3

[2] = system: hKv1.3-M1 channel (turret domain of hKv1.3 substituted by hKv1.2 region); test: Whole-cell patch clamp, chimeric hKv1.3-M1 channel currents; format: cell-based, human; conditions: mean ± SE, n ≥ 3, SEM
Experimental: In order to further investigate the effect of basic residue number on BmK-NSPK pharmacology, the activities of BmK-NSPK analogs were also tested on the Kv1.3 channel chimeras in this work. […] Based on the weak inhibition potencies of BmK-NSPK-7K and BmK-NSPK-8K towards hKv1.2 channel (Figure 5C,D), the work first constructed the chimeric hKv1.3-M1, in which the turret domain of hKv1.3 channel was substituted by the equivalent region of hKv1.2 channel (Figure 6A). Pharmacological experiments with 100 nM and 1 μM MeuKTX were able to inhibit 45.7 ± 7.9% and 82.8 ± 6.1% of hKv1.3-M1 channel currents, respectively (Figure 6B).
as §1, §2
(§4) Whole-cell current measurement and data acquisition were performed using an EPC-10 patch-clamp amplifier controlled by Pulse (HEKA Elektronik, Lambrecht, Germany). The potassium currents were recorded according to the recording protocol for the Kv1 channel, as described in previously published references. Peptides were dissolved in an external solution containing 0.01% BSA for electrophysiological experiments. The patch pipette solution contained 140 mM KF (Sigma, St. Louis, MC, USA), 2 mM MgCl2 (Sinopharm Chemical Reagent Co., Ltd., Shanghai, China), 1 mM EGTA (Sigma) and 10 mM HEPES (neoFroxx, Einhausen, Hessen, Germany) (pH adjusted to 7.4 with KOH (Sinopharm Chemical Reagent Co., Ltd., Shanghai, China)), and the bath solution contained 4.5 mM KCl, 160 Mm NaCl (Sinopharm Chemical Reagent Co., Ltd., Shanghai, China), 5 mM HEPES, 2 mM CaCl2 (Sinopharm Chemical Reagent Co., Ltd., Shanghai, China) and 1 mM MgCl2 (pH adjusted to 7.4 with NaOH (Sinopharm Chemical Reagent Co., Ltd., Shanghai, China)).
(§5) Graphing and data analysis were conducted using GraphPad Prism software (Version 8.0, San Diego, CA, USA), ClampFit software (version 10.2, Molecular Devices, Sunnyvale, CA, USA), and SigmaPlot software (version 12.0, IBM SPSS, Chicago, IL, USA). The dose–response relationship between the channel current and peptide inhibition was modeled by the modified Hill equation: Ipeptide/Icontrol = 1/{1 + [peptide]/IC50}, where Ipeptide represents the potassium current under peptide inhibition, Icontrol represents the peak current, IC50 is the half-maximal inhibition concentration and [peptide] represents the peptide concentration. The IC50 was obtained by fitting the Hill equation. Results are presented as mean ± SE, with each sample tested on at least three cells (n ≥ 3).

[3] = system: hKv1.3-M2 channel (filter region of hKv1.3 substituted by hKv1.2 region); test: Whole-cell patch clamp, chimeric hKv1.3-M2 channel currents; format: cell-based, human; conditions: mean ± SE, n ≥ 3, SEM
Experimental: Apart from the chimeric hKv1.3-M1, this work further constructed the chimeric hKv1.3-M2 channel, in which the filter region of hKv1.3 channel was substituted by the equivalent region of hKv1.2 channel (Figure 6A). Pharmacological experiments 100 nM and 1 μM MeuKTX were able to inhibit 78.3 ± 4.9% and 95.9 ± 1.3% of hKv1.3-M2 channel currents, respectively, which indicated the minor effect of channel filter region on MeuKTX binding (Figure 6B). However, more significant effects were also observed for BmK-NSPK analogs with different numbers of basic residues.
as §1, §2, §4, §5

[4] = system: hKv1.3-M3 channel (turret, pore helix and filter region of hKv1.3 replaced by hKv1.2 regions); test: Whole-cell patch clamp, chimeric hKv1.3-M3 channel currents; format: cell-based, human; conditions: mean ± SE, n ≥ 3, SEM
Excerpt: as §1, §2, §4, §5

[5] = target: human Kv1.3 potassium channel (human) (UniProt P22001); remark: listed apart in the source

Chain of human Kv1.3 potassium channel (human) (P22001 whole entry): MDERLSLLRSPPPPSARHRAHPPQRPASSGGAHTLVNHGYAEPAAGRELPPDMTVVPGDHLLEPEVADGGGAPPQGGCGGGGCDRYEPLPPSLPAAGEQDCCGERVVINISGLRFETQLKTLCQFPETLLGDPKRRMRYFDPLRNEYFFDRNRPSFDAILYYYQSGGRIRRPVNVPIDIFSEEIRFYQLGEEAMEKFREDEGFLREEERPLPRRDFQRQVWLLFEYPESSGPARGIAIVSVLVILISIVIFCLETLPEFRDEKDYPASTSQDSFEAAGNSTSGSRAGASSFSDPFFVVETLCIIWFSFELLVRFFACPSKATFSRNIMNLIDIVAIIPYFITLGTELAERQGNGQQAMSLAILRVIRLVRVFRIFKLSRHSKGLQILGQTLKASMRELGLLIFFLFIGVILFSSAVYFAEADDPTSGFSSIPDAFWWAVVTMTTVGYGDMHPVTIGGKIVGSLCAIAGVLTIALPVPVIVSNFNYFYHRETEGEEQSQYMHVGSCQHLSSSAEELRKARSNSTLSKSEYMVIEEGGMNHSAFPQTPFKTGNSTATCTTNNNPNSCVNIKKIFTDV
Chain of KTX-2 peptide (P45696 23-59): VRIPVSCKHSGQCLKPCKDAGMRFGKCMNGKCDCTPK
Chain of KTX-3 peptide (P59290 whole entry): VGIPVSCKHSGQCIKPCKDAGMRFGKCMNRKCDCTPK
Chain of hKv1.2 channel (human) (P16389 whole entry): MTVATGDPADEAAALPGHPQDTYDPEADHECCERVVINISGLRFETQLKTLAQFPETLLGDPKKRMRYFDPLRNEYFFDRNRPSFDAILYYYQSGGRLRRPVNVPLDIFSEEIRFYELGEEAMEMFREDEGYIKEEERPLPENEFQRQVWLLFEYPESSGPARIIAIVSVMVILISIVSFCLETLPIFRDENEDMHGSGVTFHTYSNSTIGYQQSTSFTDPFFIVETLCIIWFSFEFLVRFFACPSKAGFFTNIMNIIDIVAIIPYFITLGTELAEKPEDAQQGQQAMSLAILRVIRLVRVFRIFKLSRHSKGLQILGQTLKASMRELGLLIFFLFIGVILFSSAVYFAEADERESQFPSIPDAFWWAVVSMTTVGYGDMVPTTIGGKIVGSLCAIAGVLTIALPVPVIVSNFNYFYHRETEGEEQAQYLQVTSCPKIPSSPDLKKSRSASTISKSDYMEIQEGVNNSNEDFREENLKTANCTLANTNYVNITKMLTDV
Chain of hKv1.6 channel (human) (P17658 whole entry): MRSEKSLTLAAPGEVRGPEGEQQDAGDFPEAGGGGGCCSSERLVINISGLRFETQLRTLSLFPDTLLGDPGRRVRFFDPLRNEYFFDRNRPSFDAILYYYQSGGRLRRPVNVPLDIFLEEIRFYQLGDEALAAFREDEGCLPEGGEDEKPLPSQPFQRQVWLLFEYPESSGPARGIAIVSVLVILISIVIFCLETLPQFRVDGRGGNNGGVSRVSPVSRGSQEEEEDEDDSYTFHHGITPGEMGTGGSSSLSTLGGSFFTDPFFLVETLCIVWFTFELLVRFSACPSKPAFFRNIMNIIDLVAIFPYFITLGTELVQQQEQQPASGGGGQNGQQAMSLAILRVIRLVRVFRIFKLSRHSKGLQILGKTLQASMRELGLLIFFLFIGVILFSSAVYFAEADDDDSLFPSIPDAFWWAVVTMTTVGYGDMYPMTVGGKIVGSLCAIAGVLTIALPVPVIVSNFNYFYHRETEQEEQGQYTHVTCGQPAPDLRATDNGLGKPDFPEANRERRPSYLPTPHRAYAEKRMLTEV
Chain of hKv1.1 channel (human) (Q09470 whole entry): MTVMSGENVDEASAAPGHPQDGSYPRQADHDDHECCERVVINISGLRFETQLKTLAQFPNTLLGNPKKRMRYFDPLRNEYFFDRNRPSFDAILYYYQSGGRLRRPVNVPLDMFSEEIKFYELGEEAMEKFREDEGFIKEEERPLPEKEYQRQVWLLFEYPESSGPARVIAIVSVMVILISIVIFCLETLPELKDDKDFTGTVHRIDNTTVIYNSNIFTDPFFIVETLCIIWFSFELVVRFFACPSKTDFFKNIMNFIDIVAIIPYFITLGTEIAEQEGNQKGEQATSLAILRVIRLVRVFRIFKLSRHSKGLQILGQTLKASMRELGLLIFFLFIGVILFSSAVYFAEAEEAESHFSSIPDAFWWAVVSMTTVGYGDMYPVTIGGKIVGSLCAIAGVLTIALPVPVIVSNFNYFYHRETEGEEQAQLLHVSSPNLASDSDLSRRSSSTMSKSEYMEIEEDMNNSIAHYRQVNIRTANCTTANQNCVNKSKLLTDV

In the case of MeuKTX peptide, the IC50 of inhibition of hKv1.3 channel currents (whole-cell patch clamp, HEK293T) [1] is reported as 2.63 nM, the inhibition of hKv1.1 channel currents by 1 μM peptide (whole-cell patch clamp, HEK293T) (hKv1.1 channel (human)) is reported as 90.7% and the inhibition of hKv1.2 channel currents by 1 μM peptide (whole-cell patch clamp, HEK293T) (hKv1.2 channel (human)) is reported as 14.6%. The inhibition of hKv1.6 channel currents by 1 μM peptide (whole-cell patch clamp, HEK293T) (hKv1.6 channel (human)) was 77.4%.

`CC[C@H](C)[C@H](NC(=O)CNC(=O)[C@@H](N)C(C)C)C(=O)N[C@@H](CC(N)=O)C(=O)N[C@H](C(=O)N[C@@H](CCCCN)C(=O)N[C@H]1CSSC[C@@H]2NC(=O)[C@H](CCCCN)NC(=O)CNC(=O)[C@H](Cc3ccccc3)NC(=O)[C@H](CCCNC(=N)N)NC(=O)[C@H](CCSC)NC(=O)CNC(=O)[C@H](C)NC(=O)[C@H](CC(=O)O)NC(=O)[C@H](CCCCN)NC(=O)[C@@H]3CSSC[C@@H](C(=O)N[C@H](C(=O)N4CCC[C@H]4C(=O)N[C@@H](CCCCN)C(=O)O)[C@@H](C)O)NC(=O)[C@H](CC(=O)O)NC(=O)[C@H](CSSC[C@H](NC(=O)[C@H](CCC(N)=O)NC(=O)CNC(=O)[C@H](CO)NC(=O)[C@H](Cc4c[nH]cn4)NC(=O)[C@H](CCCCN)NC1=O)C(=O)N[C@@H](CC(C)C)C(=O)N[C@@H](CCCCN)C(=O)N1CCC[C@H]1C(=O)N3)NC(=O)[C@H](CCCCN)NC(=O)CNC(=O)[C@H](CC(N)=O)NC(=O)[C@H](CCSC)NC2=O)C(C)C` [MeuKTX, reference compound] (H-VGINVKCKHSGQCLKPCKDAGMRFGKCMNGKCDCTPK-OH; disulfide 7-27, 13-32, 17-34 (inferred); N-terminus and C-terminus assumed) was tested, and the “inhibition of hKv1.1 channel currents” value (hKv1.1 channel) was 90.7 ± 1.1%, the “inhibition of hKv1.2 channel currents” value (hKv1.2 channel) was 14.6 ± 2.6% and the “inhibition of hKv1.6 channel currents” value (hKv1.6 channel) was 77.4 ± 2.7%. For the same molecule, the “inhibition of hKv1.3-M1 channel currents” value ([2]; 100 nM peptide) was 45.7 ± 7.9%, the “inhibition of hKv1.3-M1 channel currents” value ([2]; 1 μM peptide) was 82.8 ± 6.1% and the “inhibition of hKv1.3-M2 channel currents” value ([3]; 100 nM peptide) was 78.3 ± 4.9%. For the same molecule, the “inhibition of hKv1.3-M2 channel currents” value ([3]; 1 μM peptide) was 95.9 ± 1.3%, the “inhibition of hKv1.3-M3 channel currents” value ([4]; 100 nM peptide) was 3.9 ± 0.21% and the “inhibition of hKv1.3-M3 channel currents” value ([4]; 1 μM peptide) was 16.1 ± 2.0%.

BmK-NSPK-I18K/I26K/K28M (peptide) showed an inhibition of hKv1.3 channel currents by 1 μM peptide (whole-cell patch clamp, HEK293T) [5] of 26.5%.

For “KTX-3 peptide (from UniProt P59290 1-37)”, the IC50 of inhibition of hKv1.3 channel currents (whole-cell patch clamp, HEK293T) [1] was 0.46 nM and the inhibition of hKv1.3 channel currents by 1 μM peptide (whole-cell patch clamp, HEK293T) [1] was 91.6%.

BmK-NSPK peptide gave an inhibition of hKv1.3 channel currents by 1 μM peptide (whole-cell patch clamp, HEK293T) [1] of 2.3%, an inhibition of hKv1.1 channel currents by 1 μM peptide (whole-cell patch clamp, HEK293T) (hKv1.1 channel (human)) of 1.2% and an inhibition of hKv1.2 channel currents by 1 μM peptide (whole-cell patch clamp, HEK293T) (hKv1.2 channel (human)) of 1.7%. For the same molecule, the inhibition of hKv1.6 channel currents by 1 μM peptide (whole-cell patch clamp, HEK293T) (hKv1.6 channel (human)) was 5.4%.

Work on “KTX-2 peptide (from UniProt P45696 23-59)” yielded an IC50 of inhibition of hKv1.3 channel currents (whole-cell patch clamp, HEK293T) [1] of 0.32 nM and an inhibition of hKv1.3 channel currents by 1 μM peptide (whole-cell patch clamp, HEK293T) [1] of 94.9%.

With `CC[C@H](C)[C@H](NC(=O)CNC(=O)[C@@H](N)C(C)C)C(=O)N[C@@H](CC(N)=O)C(=O)N[C@H](C(=O)N[C@@H](CCCCN)C(=O)N[C@H]1CSSC[C@@H]2NC(=O)[C@H](CCCCN)NC(=O)CNC(=O)[C@H](Cc3ccccc3)NC(=O)[C@H](CCCNC(=N)N)NC(=O)[C@H](CCSC)NC(=O)CNC(=O)[C@H](C)NC(=O)[C@H](CC(=O)O)NC(=O)[C@H](CCCCN)NC(=O)[C@@H]3CSSC[C@@H](C(=O)N[C@H](C(=O)N4CCC[C@H]4C(=O)N[C@@H](CCCCN)C(=O)NCC(=O)O)[C@@H](C)O)NC(=O)[C@H](CC(=O)O)NC(=O)[C@H](CSSC[C@H](NC(=O)[C@H](CCC(N)=O)NC(=O)CNC(=O)[C@H](CO)NC(=O)[C@H](Cc4c[nH]cn4)NC(=O)[C@H](CCCCN)NC1=O)C(=O)N[C@@H](CC(C)C)C(=O)N[C@@H](CCCCN)C(=O)N1CCC[C@H]1C(=O)N3)NC(=O)[C@H](CCCCN)NC(=O)CNC(=O)[C@H](CC(N)=O)NC(=O)[C@H](CCSC)NC2=O)C(C)C` [BmK-NSPK-7K] (H-VGINVKCKHSGQCLKPCKDAGMRFGKCMNGKCDCTPKG-OH; disulfide 7-27, 13-32, 17-34 (inferred); N-terminus and C-terminus assumed) the “inhibition of hKv1.1 channel currents” value (hKv1.1 channel) was 84.1 ± 7.0%, the “inhibition of hKv1.2 channel currents” value (hKv1.2 channel) was 9.2 ± 0.6% and the “inhibition of hKv1.6 channel currents” value (hKv1.6 channel) was 79.2 ± 2.4%. For the same molecule, the “inhibition of hKv1.3-M1 channel currents” value ([2]; 100 nM peptide) was 23.4 ± 3.4%, the “inhibition of hKv1.3-M1 channel currents” value ([2]; 1 μM peptide) was 78.8 ± 3.4% and the “inhibition of hKv1.3-M2 channel currents” value ([3]; 100 nM peptide) was 35.4 ± 6.7%. The “inhibition of hKv1.3-M2 channel currents” value ([3]; 1 μM peptide) was 72.9 ± 7.0%, the “inhibition of hKv1.3-M3 channel currents” value ([4]; 100 nM peptide) was 1.2 ± 0.21% and the “inhibition of hKv1.3-M3 channel currents” value ([4]; 1 μM peptide) was 7.4 ± 0.64%.

— article PMC11819763, “Activity of Potassium Channel BmK-NSPK Inhibitor Regulated by Basic Amino Acid Residues: Novel Insight into the Diverse Peptide Pharmacology” (Molecules, 2025)
